{"source": "BindingDB's records for doi:10.7270/Q2CR5RSX", "about": "(Vanderbilt Screening Center For Gpcrs, Ion Channels and …, 2009)", "biological_target": "T1, Muscarinic acetylcholine receptor M5 (Homo sapiens, UniProt P08912)", "T1 sequence (P08912 whole entry)": "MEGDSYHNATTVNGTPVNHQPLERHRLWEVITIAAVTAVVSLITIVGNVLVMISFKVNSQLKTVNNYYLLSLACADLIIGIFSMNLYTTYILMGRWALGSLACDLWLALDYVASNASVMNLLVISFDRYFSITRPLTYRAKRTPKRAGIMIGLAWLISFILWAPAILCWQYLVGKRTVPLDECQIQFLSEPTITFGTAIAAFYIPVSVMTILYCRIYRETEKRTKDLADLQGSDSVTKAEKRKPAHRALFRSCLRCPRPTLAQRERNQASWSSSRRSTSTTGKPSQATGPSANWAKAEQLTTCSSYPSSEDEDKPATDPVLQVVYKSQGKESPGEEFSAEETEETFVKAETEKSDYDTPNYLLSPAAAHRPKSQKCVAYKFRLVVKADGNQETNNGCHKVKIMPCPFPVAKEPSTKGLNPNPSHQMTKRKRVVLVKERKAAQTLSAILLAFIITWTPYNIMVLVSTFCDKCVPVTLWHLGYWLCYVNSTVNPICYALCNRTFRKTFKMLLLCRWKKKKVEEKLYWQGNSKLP", "test": "compound effect on ACh competition at M5, biochemical, [3H]N-methylscopolamine, acetylcholine (AID 2194)", "data": [{"smiles": "COc1ccc(CN2C(=O)C(=O)c3cc(OC(F)(F)F)ccc32)cc1", "note": "[VU0238429]", "values": [{"measurement": "EC50", "value": 210, "unit": "nM"}]}]}
